Results reported in patent USRE40086E1, “Method for treating bacterial infection with novel 7-substituted-9-substituted amino 6-demethyl-6-deoxytetracyclines” (Wyeth Holdings Corporation, priority 1991, dated 2008).
Structures can show the parent of a compound that is named as a salt. Where two headings read alike, the source gives them in different places.

Key:
[1] = system: E. faecalis ATCC 29212; assay: MIC, agar dilution; assay type: cell-based; details: E. faecalis ATCC 29212; Table IA; unit assumed
[2] = system: S. aureus ATCC 29213 (Sensitive); assay: MIC, agar dilution; assay type: cell-based; details: S. aureus ATCC 29213; Table IA; unit assumed
[3] = system: E. coli J2175; assay: MIC, agar dilution (Table IA); assay type: cell-based; details: unit assumed
[4] = system: E. coli BAJ9003; assay: MIC, agar dilution (Table IA); assay type: cell-based
[5] = system: X. maltophilia NEMC 87210; assay: MIC, agar dilution (Table IA); assay type: cell-based; details: unit assumed
[6] = system: S. aureus SMITH (sens); assay: In vivo antibacterial evaluation, acute lethal infection in mice; details: Oral
Source text: In Vivo Antibacterial Evaluation (Table VII)

[7] = system: S. mariescens FDOR 8733; assay: MIC, agar dilution (Table IA); assay type: cell-based; details: unit assumed
[8] = system: E. coli J3272 TetD; assay: MIC, agar dilution (Table IA); assay type: cell-based; details: unit assumed
[9] = system: S. aureus UBMS 88-7 (tetK); assay: MIC, agar dilution; assay type: cell-based; details: S. aureus UBMS 88-7 TetK; Table IA; unit assumed
[10] = system: S. aureus SMITH (sens); assay: In vivo antibacterial evaluation, acute lethal infection in mice; details: Intraveneous
[11] = system: S. aureus UBMS 88-5 (tetM); assay: MIC, agar dilution; assay type: cell-based; details: S. aureus UBMS 88-5 TetM; Table IA; unit assumed
[12] = system: E. coli UBMS 88-1 (tetB); assay: MIC, agar dilution; assay type: cell-based; details: E. coli UBMS 88-1 TetB; Table IA; unit assumed
[13] = system: E. coli J3272 Tet sens.; assay: MIC, agar dilution (Table IA); assay type: cell-based; details: unit assumed
[14] = system: S. aureus UBMS 90-2 (tetM); assay: MIC, agar dilution; assay type: cell-based; details: S. aureus UBMS 90-2 TetM; Table IA; unit assumed
[15] = system: Ps. acruginosa ATCC 27853; assay: MIC, agar dilution (Table IA); assay type: cell-based; details: unit assumed
[16] = system: E. coli #311 (MP); assay: MIC, agar dilution (Table IA); assay type: cell-based; details: unit assumed
[17] = system: E. coli PRP1 TetA; assay: MIC, agar dilution (Table IA); assay type: cell-based; details: unit assumed
[18] = system: S. aureus UBMS 90-3 (Sensitive); assay: MIC, agar dilution; assay type: cell-based; details: S. aureus UBMS 90-3; Table IA; unit assumed
[19] = system: E. faecalis 12201; assay: MIC, agar dilution; assay type: cell-based; details: Enterococcus 12201; Table IA; unit assumed
[20] = system: E. coli UBMS 89-2 (Sensitive); assay: MIC, agar dilution; assay type: cell-based; details: E. coli UBMS 89-2 Tet Sens.; Table IA; unit assumed
[21] = system: S. aureus ROSE (MP); assay: MIC, agar dilution (Table IA); assay type: cell-based; details: unit assumed
[22] = system: E. coli J3272 TetC; assay: MIC, agar dilution (Table IA); assay type: cell-based; details: unit assumed
[23] = system: E. coli ATCC 25922; assay: MIC, agar dilution; assay type: cell-based; details: E. coli ATCC 25922; Table IA; unit assumed
[24] = system: S. haemolyticus AVAH 88-3; assay: MIC, agar dilution; assay type: cell-based; details: S. hemolyticus AVHAH 88-3; Table IA; unit assumed
[25] = system: E. coli UBMS 90-4 (tetM); assay: MIC, agar dilution; assay type: cell-based; details: E. coli UBMS 90-4 TetM; Table IA; unit assumed
[26] = system: S. aureus Smith (Sensitive); assay: MIC, agar dilution; assay type: cell-based; details: S. aureus SMITH (MP); Table IA; unit assumed
[27] = system: S. aureus UBMS 88-4 (Sensitive); assay: MIC, agar dilution; assay type: cell-based; details: S. aureus UBMS 88-4; Table IA; unit assumed
[28] = system: S. aureus IVES 1983 (meth. resistant); assay: MIC, agar dilution; assay type: cell-based; details: S. aureus IVES 1983; Table IA; unit assumed
[29] = system: S. aureus UBMS 90-1 (tetM); assay: MIC, agar dilution; assay type: cell-based; details: S. aureus UBMS 90-1 TetM; Table IA; unit assumed
[30] = system: E. coli UBMS 90-5; assay: MIC, agar dilution (Table IA); assay type: cell-based; details: unit assumed
[31] = system: S. aureus NEMC 8769/89-4; assay: MIC, agar dilution (Table IA); assay type: cell-based
[32] = system: S. aureus IVES 2943 (meth. resistant); assay: MIC, agar dilution; assay type: cell-based; details: S. aureus IVES 2943; Table IA; unit assumed
[33] = system: E. coli UBMS 89-1 (tetM); assay: MIC, agar dilution; assay type: cell-based; details: E. coli UBMS 89-1 TetM; Table IA; unit assumed
[34] = system: E. coli MC4100 TetB; assay: MIC, agar dilution (Table IA); assay type: cell-based; details: unit assumed

Compound | Antibacterial activity (MIC) [1] [mg/L] | Antibacterial activity (MIC) [2] [mg/L] | Antibacterial activity (MIC) [3] [mg/L] | Antibacterial activity (MIC) [5] [mg/L] | ED50 [6] [mg/kg] | Antibacterial activity (MIC) [7] [mg/L] | Antibacterial activity (MIC) [8] [mg/L] | Antibacterial activity (MIC) [9] [mg/L] | ED50 [10] [mg/kg] | Antibacterial activity (MIC) [12] [mg/L] | Antibacterial activity (MIC) [13] [mg/L] | Antibacterial activity (MIC) [14] [mg/L] | Antibacterial activity (MIC) [15] [mg/L] | Antibacterial activity (MIC) [16] [mg/L] | Antibacterial activity (MIC) [17] [mg/L] | Antibacterial activity (MIC) [18] [mg/L] | Antibacterial activity (MIC) [19] [mg/L] | Antibacterial activity (MIC) [20] [mg/L] | Antibacterial activity (MIC) [21] [mg/L] | Antibacterial activity (MIC) [22] [mg/L] | also measured
CNC(C)C(=O)Nc1cc(N(C)C)c2c(c1O)C(=O)C1=C(O)[C@]3(O)C(=O)C(C(N)=O)=C(O)[C@@H](N(C)C)C3CC1C2.Cl.Cl (stereo partly drawn) [YY, [4S-(4alpha,12aalpha))-4,7-Bis(dimethylamino)-1,4,4a,5,5a,6,11,12a-octahydro-3,10,12,12a-tetrahydroxy-9-[[2-(methylamino)-1-oxopropyl]amino]-1,11-dioxo-2-naphthacenecarboxamide dihydrochloride] | 0.12 | 0.5 | 0.5 | 4 | >16 | 8 | 0.25 | 4 | 0.5 to 1 | 0.5 | 0.5 | 0.25 | 16 | 0.5 | 2 | 0.12 | 0.25 | 0.5 | 8 | 1 | Antibacterial activity (MIC) ([4]; unit assumed): 0.06 mg/L; Antibacterial activity (MIC) [11]: 0.5 mg/L; Antibacterial activity (MIC) [23]: 0.5 mg/L; Antibacterial activity (MIC) [24]: 0.5 mg/L; Antibacterial activity (MIC) [25]: 0.5 mg/L; Antibacterial activity (MIC) [26]: 0.25 mg/L; Antibacterial activity (MIC) [27]: 0.5 mg/L; Antibacterial activity (MIC) [28]: 4 mg/L; Antibacterial activity (MIC) [29]: 0.25 mg/L; Antibacterial activity (MIC) [30]: 0.5 mg/L; Antibacterial activity (MIC) ([31]; unit assumed): 0.12 mg/L; Antibacterial activity (MIC) [32]: 8 mg/L; Antibacterial activity (MIC) [33]: 0.5 mg/L; Antibacterial activity (MIC) [34]: 0.5 mg/L
CN(C)c1cc(NC(=O)CN2CCCC2)c(O)c2c1CC1CC3[C@H](N(C)C)C(O)=C(C(N)=O)C(=O)[C@@]3(O)C(O)=C1C2=O (stereo partly drawn) [SS, [7S-(7alpha,10aalpha)]-N-[9-(Aminocarbonyl)-4,7-bis(dimethylamino)-5,5a,6,6a,7,10,10a,12-octahydro-1,8,10a,11-tetrahydroxy-10,12-dioxo-2-naphthacenyl]-1-pyrrolidineacetamide dihydrochloride] | 0.12 | 0.12 | 0.25 | 0.5 | 8 to 16 | 2 | 0.12 | 0.5 | 1 to 2 | 0.25 | 0.25 | 0.12 | 16 | 0.12 | 0.5 | 0.12 | 0.12 | 0.25 | 1 | 0.25 | Antibacterial activity (MIC) [4]: ≦0.015; Antibacterial activity (MIC) [23]: 0.25 mg/L; Antibacterial activity (MIC) [24]: 0.25 mg/L; Antibacterial activity (MIC) [25]: 0.25 mg/L; Antibacterial activity (MIC) [26]: 0.12 mg/L; Antibacterial activity (MIC) [27]: 0.12 mg/L; Antibacterial activity (MIC) [28]: 0.5 mg/L; Antibacterial activity (MIC) [29]: 0.12 mg/L; Antibacterial activity (MIC) [30]: 0.25 mg/L; Antibacterial activity (MIC) ([31]; unit assumed): 0.03 mg/L; Antibacterial activity (MIC) [32]: 1 mg/L; Antibacterial activity (MIC) [33]: 0.12 mg/L; Antibacterial activity (MIC) [34]: 0.25 mg/L
CN(C)CC(=O)Nc1cc(N(C)C)c2c(c1O)C(=O)C1=C(O)C3(O)C(=O)C(C(N)=O)=C(O)C(N(C)C)C3CC1C2 (stereo not drawn) [LL, [4S-(4alpha,12aalpha)]-4,7-Bis(dimethylamino)-9-[[(dimethylamino)acetyl]amino]-1,4,4a,5,5a,6,11,12a-octahydro-3,10,12,12a-tetrahydroxy-1,11-dioxo-2-naphthacenecarboxamide] | 0.06 | 0.06 | 0.12 | 0.25 | 4 to 8 | 2 | 0.06 | 0.5 | 0.25 to 0.5 | 0.25 | 0.12 | 0.12 | 4 | 0.12 | 1 | 0.06 | 0.06 | 0.12 | 1 | 0.5 | Antibacterial activity (MIC) [11]: 0.12 mg/L; Antibacterial activity (MIC) [23]: 0.12 mg/L; Antibacterial activity (MIC) [24]: 0.12 mg/L; Antibacterial activity (MIC) [25]: 0.25 mg/L; Antibacterial activity (MIC) [26]: 0.06 mg/L; Antibacterial activity (MIC) [27]: 0.06 mg/L; Antibacterial activity (MIC) [28]: 1 mg/L; Antibacterial activity (MIC) [29]: 0.12 mg/L; Antibacterial activity (MIC) [30]: 0.12 mg/L; Antibacterial activity (MIC) [31]: ≦0.015; Antibacterial activity (MIC) [32]: 1 mg/L; Antibacterial activity (MIC) [33]: 0.12 mg/L; Antibacterial activity (MIC) [34]: 0.25 mg/L
